Experimental data reported in US12187709B2 (Genentech, Inc., priority 2021, dated 2025).

What was measured:
c-Cbl (residues 47-435) = c-Cbl (residues 47-435) (Homo sapiens (Human), UniProt P22681); experiment: c-Cbl SPR assay; assay type: binding; settings: 20° C.
How it was run: (§1)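 Where a chaser compound was used, % compound bound was calculated as (1−(RUT/RUT0))*100 relative to a prior chaser injection and fitted to a single exponential for kd. The single cycle titration (max 500 nM) was then fitted with kd held fixed.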

c-Cbl = c-Cbl (Homo sapiens (Human), UniProt P22681); experiment: C-Cbl LCK Ub TR-FRET assay (C-cbl Lck HTRF); assay type: biochemical
How it was run: (§2)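 After the ubiquitination reaction, detection mixture was added and plates incubated 20 min at room temperature before reading. IC50 values were calculated with wells lacking LCK as the low control and DMSO as the high control.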

Cbl-b = Cbl-b (Homo sapiens (Human), UniProt Q13191); experiment: Cbl-b LCK Ub TR-FRET assay (Cbl-b Lck HTRF); assay type: biochemical; settings: for IC50: Cbl-b LCK Ub TR-FRET; for fold-selectivity (Cbl-b over C-cbl) / (fold-selectivity) Cbl-b and C-Cbl Selectivity: ratio C-cbl Lck HTRF IC50 / Cbl-b Lck HTRF IC50
How it was run: as §2

[1] = molecular target: Human Cbl-b (residues 40-426) (Homo sapiens (Human), UniProt Q13191); experiment: Cbl-b SPR assay; assay type: binding; settings: for Fold of selectivity: C-cbl SPR Kd vs Cbl-b SPR Kd; for Kd: SPR, 20° C.
How it was run: as §1

Sequence of c-Cbl (residues 47-435) (P22681 47-435): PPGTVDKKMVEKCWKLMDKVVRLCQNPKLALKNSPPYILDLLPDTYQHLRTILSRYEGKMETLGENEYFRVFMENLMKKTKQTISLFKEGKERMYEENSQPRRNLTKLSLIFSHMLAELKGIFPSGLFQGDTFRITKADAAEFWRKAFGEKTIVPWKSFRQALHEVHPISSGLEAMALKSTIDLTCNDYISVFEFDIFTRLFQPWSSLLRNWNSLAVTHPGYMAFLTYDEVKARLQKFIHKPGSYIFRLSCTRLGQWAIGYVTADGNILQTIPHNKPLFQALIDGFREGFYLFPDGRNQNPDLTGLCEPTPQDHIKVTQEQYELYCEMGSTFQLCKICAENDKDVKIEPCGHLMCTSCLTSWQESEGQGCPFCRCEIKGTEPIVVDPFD
Sequence of c-Cbl (P22681 47-435): as above
Sequence of Cbl-b (Q13191 40-426): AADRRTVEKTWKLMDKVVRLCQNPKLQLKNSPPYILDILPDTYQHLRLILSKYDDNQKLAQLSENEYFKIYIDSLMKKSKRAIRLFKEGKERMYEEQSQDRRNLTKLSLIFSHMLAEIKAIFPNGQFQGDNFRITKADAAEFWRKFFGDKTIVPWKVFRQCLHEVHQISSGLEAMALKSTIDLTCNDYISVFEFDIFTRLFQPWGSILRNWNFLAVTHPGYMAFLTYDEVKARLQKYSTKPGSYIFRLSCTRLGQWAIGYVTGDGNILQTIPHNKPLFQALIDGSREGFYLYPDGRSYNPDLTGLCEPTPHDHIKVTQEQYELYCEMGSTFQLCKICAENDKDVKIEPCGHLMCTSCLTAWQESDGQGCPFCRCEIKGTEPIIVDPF
Sequence of Human Cbl-b (residues 40-426) (Q13191 40-426): as above

Cn1cnnc1C1(c2cc(C3CC3)nc(N3Cc4c(cc(CNC5(C)CCC5)cc4C(F)(F)F)C3=O)c2)CC(F)(F)C1 [Compound 16, 2-(6-cyclopropyl-4-(3,3-difluoro-1-(4-methyl-4H-1,2,4-triazol-3-yl)cyclobutyl)pyridin-2-yl)-6-(((1-methylcyclobutyl)amino)methyl)-4-(trifluoromethyl)isoindolin-1-one] showed a Kd (c-Cbl (residues 47-435)) of 0.00034 µM, an IC50 (c-Cbl) of 0.0052 µM and an IC50 (Cbl-b) of 0.0069 µM. The “fold-selectivity (Cbl-b over C-cbl)” value (Cbl-b) was “(0.75x)”, the Fold of selectivity [1] was 1.3× and the Kd [1] was 0.00025 µM.

With Cn1cnnc1[C@H](c1cccc(N2Cc3c(cc(CNC4(C)CCC4)cc3C(F)(F)F)C2=O)c1)C1(O)COC1 (single isomer, unassigned) [Compound 147] the Kd (c-Cbl (residues 47-435)) was 0.042 µM, the IC50 (c-Cbl) was 0.029 µM and the IC50 (Cbl-b) was 0.013 µM. The “fold-selectivity (Cbl-b over C-cbl)” value (Cbl-b) was 2.2x, the Fold of selectivity [1] was 9.6× and the Kd [1] was 0.0036 µM.

In the case of Cn1cnnc1C1(c2cccc(N3Cc4c(cc(CNC5(C)CCC5)cc4C(F)(F)F)C3=O)c2)CN(CC(F)(F)F)C1 [Compound 110, 2-(3-(3-(4-methyl-4H-1,2,4-triazol-3-yl)-1-(2,2,2-trifluoroethyl)azetidin-3-yl)phenyl)-6-(((1-methylcyclobutyl)amino)methyl)-4-(trifluoromethyl)isoindolin-1-one], the Kd (c-Cbl (residues 47-435)) is reported as 7.6 µM, the IC50 (c-Cbl) is reported as 9.4 µM and the IC50 (Cbl-b) is reported as 1.4 µM. The “fold-selectivity (Cbl-b over C-cbl)” value (Cbl-b) was 6.5x, the Fold of selectivity [1] was 7.2× and the Kd [1] was 1.1 µM.

Compound CC(=O)C1CC([C@@H](c2cccc(N3Cc4c(cc(CNC5(C)CCC5)cc4C(F)(F)F)C3=O)c2)c2nncn2C)C1 (single isomer, unassigned) [Compound 383] has a Kd (c-Cbl (residues 47-435)) of 0.02 µM, an IC50 (c-Cbl) of 0.024 µM and an IC50 (Cbl-b) of 0.019 µM. The “fold-selectivity (Cbl-b over C-cbl)” value (Cbl-b) was 1.3x, the Fold of selectivity [1] was 7.7× and the Kd [1] was 0.0026 µM.

With Cn1cnnc1[C@H](c1cccc(N2Cc3c(cc(CNC4(C)CCC4)cc3C(F)(F)F)C2=O)c1)C1CC1 (single isomer, unassigned) [Compound 343] the Kd (c-Cbl (residues 47-435)) was 2.8 µM, the IC50 (c-Cbl) was 0.61 µM and the IC50 (Cbl-b) was 0.29 µM. For the same compound, the “fold-selectivity (Cbl-b over C-cbl)” value (Cbl-b) was 2.1x, the Fold of selectivity [1] was 6.4× and the Kd [1] was 0.44 µM.

In the case of CO[C@H]1C[C@@](c2cccc(N3Cc4c(cc(CN5CCN(C)C[C@@H]5C(C)C)cc4C(F)(F)F)C3=O)c2)(c2nncn2C)C1 (single isomer, unassigned) [Compound 172], the Kd (c-Cbl (residues 47-435)) is reported as 0.31 µM, the IC50 (c-Cbl) is reported as 0.29 µM and the IC50 (Cbl-b) is reported as 0.088 µM. The “fold-selectivity (Cbl-b over C-cbl)” value (Cbl-b) was 3.4x, the Fold of selectivity [1] was 4.7× and the Kd [1] was 0.067 µM.

CO[C@H]1C[C@](c2cccc(N3Cc4c(cc(CNC5(C)CC(F)(F)C5)cc4C(F)(F)F)C3=O)c2)(c2nncn2C)C1 [Compound 471, 6-(((3,3-difluoro-1-methylcyclobutyl)amino)methyl)-2-(3-((1r,3r)-3-methoxy-1-(4-methyl-4H-1,2,4-triazol-3-yl)cyclobutyl)phenyl)-4-(trifluoromethyl)isoindolin-1-one] gave a Kd (c-Cbl (residues 47-435)) of 0.091 µM, an IC50 (c-Cbl) of 0.036 µM and an IC50 (Cbl-b; Example 121) of 0.0083 µM. The “(fold-selectivity) Cbl-b and C-Cbl Selectivity” value (Cbl-b) was 4.3x, the Fold of selectivity [1] was 11× and the Kd [1] was 0.0083 µM.

With CO[C@H]1C[C@](c2cccc(N3Cc4c(cc(CNC(C)C)cc4C(F)(F)F)C3=O)c2)(c2nncn2C)C1 [Compound 419, 6-((isopropylamino)methyl)-2-(3-((1r,3r)-3-methoxy-1-(4-methyl-4H-1,2,4-triazol-3-yl)cyclobutyl)phenyl)-4-(trifluoromethyl)isoindolin-1-one] the Kd (c-Cbl (residues 47-435)) was 0.24 µM, the IC50 (c-Cbl) was 0.19 µM and the IC50 (Cbl-b; Example 121) was 0.029 µM. The “(fold-selectivity) Cbl-b and C-Cbl Selectivity” value (Cbl-b) was 6.7x, the Fold of selectivity [1] was 8.2× and the Kd [1] was 0.032 µM.

CCOC1CC([C@H](c2cccc(N3Cc4c(cc(CNC5(C)CCC5)cc4C(F)(F)F)C3=O)c2)c2nncn2C)C1 (single isomer, unassigned) [Compound 265] showed a Kd (c-Cbl (residues 47-435)) of 1.3 µM, an IC50 (c-Cbl) of 3.4 µM and an IC50 (Cbl-b) of 0.31 µM. The “fold-selectivity (Cbl-b over C-cbl)” value (Cbl-b) was 11x, the Fold of selectivity [1] was 7.5× and the Kd [1] was 0.18 µM.

Cn1cnnc1C(c1cccc(N2Cc3c(cc(CNC4(C)CCC4)cc3C(F)(F)F)C2=O)c1)C1(F)CSC1 (stereo not drawn) [Compound 462, 2-(3-((3-fluorothietan-3-yl)(4-methyl-4H-1,2,4-triazol-3-yl)methyl)phenyl)-6-(((1-methylcyclobutyl)amino)methyl)-4-(trifluoromethyl)isoindolin-1-one] was tested, and the Kd (c-Cbl (residues 47-435)) was 0.021 µM, the IC50 (c-Cbl) was 0.024 µM and the IC50 (Cbl-b; Example 121) was 0.013 µM. The “(fold-selectivity) Cbl-b and C-Cbl Selectivity” value (Cbl-b) was 1.9x, the Fold of selectivity [1] was 10× and the Kd [1] was 0.002 µM.

CO[C@H]1C[C@](c2cccc(N3Cc4c(cc(CNCC5(C)CC5)cc4C(F)(F)F)C3=O)c2)(c2nncn2C)C1 [Compound 474, 2-(3-((1r,3r)-3-methoxy-1-(4-methyl-4H-1,2,4-triazol-3-yl)cyclobutyl)phenyl)-6-((((1-methylcyclopropyl)methyl)amino)methyl)-4-(trifluoromethyl)isoindolin-1-one] was tested, and the Kd (c-Cbl (residues 47-435)) was 0.068 µM, the IC50 (c-Cbl) was 0.051 µM and the IC50 (Cbl-b; Example 121) was 0.011 µM. For the same compound, the “(fold-selectivity) Cbl-b and C-Cbl Selectivity” value (Cbl-b) was 4.8x, the Fold of selectivity [1] was 14× and the Kd [1] was 0.0048 µM.

In the case of CO[C@H]1C[C@](c2cc(NC3CCCC3)nc(N3Cc4c(cc(CNC5(C)CCC5)cc4C(F)(F)F)C3=O)c2)(c2nncn2C)C1 [Compound 9, 2-(6-(cyclopentylamino)-4-((1r,3r)-3-methoxy-1-(4-methyl-4H-1,2,4-triazol-3-yl)cyclobutyl)pyridin-2-yl)-6-(((1-methylcyclobutyl)amino)methyl)-4-(trifluoromethyl)isoindolin-1-one], the Kd (c-Cbl (residues 47-435)) is reported as 0.22 µM, the IC50 (c-Cbl) is reported as 0.118 µM and the IC50 (Cbl-b) is reported as 0.011 µM. For the same compound, the “fold-selectivity (Cbl-b over C-cbl)” value (Cbl-b) was 8.4x, the Fold of selectivity [1] was 20× and the Kd [1] was 0.011 µM.

Work on Cn1cnnc1[C@@H](c1cccc(N2Cc3c(cc(CNC4(C)CCC4)cc3C(F)F)C2=O)c1)C1CC(F)C1 (single isomer, unassigned) [Compound 459] yielded a Kd (c-Cbl (residues 47-435)) of 0.0032 µM, an IC50 (c-Cbl) of 0.0063 µM and an IC50 (Cbl-b; Example 121) of 0.0059 µM. For the same compound, the “(fold-selectivity) Cbl-b and C-Cbl Selectivity” value (Cbl-b) was 1.1x, the Fold of selectivity [1] was 6.1× and the Kd [1] was 0.0005 µM.

For CO[C@H]1C[C@@](c2cc(NC3CCCC3)nc(N3Cc4c(cc(CNC5(C)CCC5)cc4C(F)(F)F)C3=O)c2)(c2nncn2C)C1 [Compound 69, 2-(6-(cyclopentylamino)-4-((1S,3S)-3-methoxy-1-(4-methyl-4H-1,2,4-triazol-3-yl)cyclobutyl)pyridin-2-yl)-6-(((1-methylcyclobutyl)amino)methyl)-4-(trifluoromethyl)isoindolin-1-one], the Kd (c-Cbl (residues 47-435)) was 0.023 µM, the IC50 (c-Cbl) was 0.054 µM and the IC50 (Cbl-b) was 0.011 µM. For the same compound, the “fold-selectivity (Cbl-b over C-cbl)” value (Cbl-b) was “(4.9x)”, the Fold of selectivity [1] was 6.9× and the Kd [1] was 0.0033 µM.

CCNc1cc(N2Cc3c(cc(CNC4(C)CCC4)cc3C(F)(F)F)C2=O)cc([C@]2(c3nncn3C)C[C@@H](C)C2)c1 [Compound 91, 2-(3-(ethylamino)-5-((1s,3s)-3-methyl-1-(4-methyl-4H-1,2,4-triazol-3-yl)cyclobutyl)phenyl)-6-(((1-methylcyclobutyl)amino)methyl)-4-(trifluoromethyl)-isoindolin-1-one] was tested, and the Kd (c-Cbl (residues 47-435)) was 0.0009 µM, the IC50 (c-Cbl) was 0.008 µM and the IC50 (Cbl-b) was 0.01 µM. For the same compound, the “fold-selectivity (Cbl-b over C-cbl)” value (Cbl-b) was 0.8x, the Fold of selectivity [1] was 3.0× and the Kd [1] was 0.0003 µM.

In the case of Cn1cnnc1[C@@H](c1cc(Cl)cc(N2Cc3c(cc(CNC4(C)CCC4)cc3C(F)(F)F)C2=O)c1)C1COC1 (single isomer, unassigned) [Compound 408], the Kd (c-Cbl (residues 47-435)) is reported as 0.77 µM, the IC50 (c-Cbl) is reported as 0.78 µM and the IC50 (Cbl-b; Example 121) is reported as 0.54 µM. For the same compound, the “(fold-selectivity) Cbl-b and C-Cbl Selectivity” value (Cbl-b) was 1.4 x, the Fold of selectivity [1] was 1.8× and the Kd [1] was 0.44 µM.

For COc1cc([C@@H](c2nncn2C)C2COC2)cc(N2Cc3c(cc(CNC4(C)CCC4)cc3C(F)(F)F)C2=O)c1 (single isomer, unassigned) [Compound 339], the Kd (c-Cbl (residues 47-435)) was 0.0042 µM, the IC50 (c-Cbl) was 0.0063 µM and the IC50 (Cbl-b) was 0.0056 µM. For the same compound, the “fold-selectivity (Cbl-b over C-cbl)” value (Cbl-b) was 1.1x, the Fold of selectivity [1] was 2.5× and the Kd [1] was 0.0017 µM.

Compound CO[C@H]1C[C@](c2cccc(N3Cc4c(cc(CN5CCCC5)cc4C(F)(F)F)C3=O)c2)(c2nncn2C)C1 [Compound 418, 2-(3-((1r,3r)-3-methoxy-1-(4-methyl-4H-1,2,4-triazol-3-yl)cyclobutyl)phenyl)-6-(pyrrolidin-1-ylmethyl)-4-(trifluoromethyl)isoindolin-1-one] has a Kd (c-Cbl (residues 47-435)) of 1.2 µM, an IC50 (c-Cbl) of 1.4 µM and an IC50 (Cbl-b; Example 121) of 0.18 µM. For the same compound, the “(fold-selectivity) Cbl-b and C-Cbl Selectivity” value (Cbl-b) was 7.3x, the Fold of selectivity [1] was 8.7× and the Kd [1] was 0.14 µM.

For Cn1cnnc1[C@]1(c2cccc(N3Cc4c(cc(CNC5(C)CCC5)cc4C(F)(F)F)C3=O)c2)C[C@H](CC#N)C1 [Compound 88, 2-((1s,3s)-3-(4-methyl-4H-1,2,4-triazol-3-yl)-3-(3-(6-(((1-methylcyclobutyl)amino)methyl)-1-oxo-4-(trifluoromethyl)isoindolin-2-yl)phenyl)-cyclobutyl)acetonitrile], the Kd (c-Cbl (residues 47-435)) was 0.087 µM, the IC50 (c-Cbl) was 0.012 µM and the IC50 (Cbl-b) was 0.012 µM. The “fold-selectivity (Cbl-b over C-cbl)” value (Cbl-b) was 1.0x, the Fold of selectivity [1] was 4.1× and the Kd [1] was 0.021 µM.
